Square brackets hold non-standard residues; d marks the D form. Peptide text beside a SMILES is read from it. * marks the point of attachment. PhAc = O=C(Cc1ccccc1)*
Tests used:
asthmatic sheep = assay: Treatment of asthmatic sheep (Ascaris suum antigen, crossover); type: in vivo; conditions: nebulized 1 mg/kg; FIG. 7
Protocol: Six asthmatic sheep were treated in a double blind cross-over study. […] This study was carried out generally as described in Abraham et al., J. Clin. Invest., 93:776-787 (1994).
The inhibitor compound used here was Compound ID No. 896.52, N-phenylacetyl-Leu-Asp-Phe-D-Pro-NH2, with a control compound that comprised the previously described compound having the same residues in a scrambled sequence. The vehicle for the nebulized compounds was phosphate-buffered saline. The compounds were administered at a dose of 1 mg/kg each, twice a day for three days prior to challenge, as well as 0.5 hours prior to and four hours post challenge on day 4. Because this was a crossover study, each animal received one or the other treatment, followed by a rest and then the other treatment. Each animal therefore served as its own control.
Post challenge airway responsiveness was also assayed. Here, specific lung resistance, SRL, returned to baseline values 24 hours after challenge, however, the sheep were hyperresponsive to inhaled carbachol at that time.

BALB/c mice = assay: Adoptive transfer delayed type hypersensitivity in mice (oxazolone); type: in vivo, mouse
Protocol: An adoptive transfer delayed-type hypersensitivity murine model has been developed using splenic T cells primed to oxazolone. This model is described in Elices et al., Clin. Exp. Rheum., 11(Suppl. 8):577-580 (1993), whose procedures were followed here.
Thus, BALB/c mice were shaved on the belly and painted (50 μl on the belly and 5 μl on each paw) with three percent oxazolone in acetone/olive oil (4:1) at days zero and 1. At day 5, the mice were sacrificed, their spleens removed, and splenic T cells were obtained via nylon wool columns.
Normal saline or saline containing 25×10^6 /animal of the oxazolone-immune T cells were separately injected into naive mice. The mice were then challenged by painting 10 μl of 2 percent oxazolone onto one ear each. All procedures were carried out under sterile conditions and in endotoxin-free buffers.
Prior to challenge or saline injection, the mice were implanted with pumps that subcutaneously administered normal saline, normal saline containing the compound, Compound ID No. 896.52, N-phenylacetyl-Leu-Asp-Phe-D-Pro-NH2, or normal saline containing a compound with a scrambled sequence continually at 6 mg/kg/day for a 24-hour time period. The swelling diameter at the site of challenge or saline injection was measured with a microcaliper 24 hours thereafter.
An expanded study was carried out as described above except that a scrambled compound control was not used as a control for further inhibitor compounds of Table 1 with larger groups of mice. Statistical analyses were carried out versus injection of vehicle alone.

[1] = Retention of potency in PBS containing 10 percent mouse or human serum; type: in vitro ADME; conditions: 24 hours in PBS at 7.2-7.4 containing 10 percent mouse or human serum
[2] = system: Porcine peripheral blood lymphocytes; assay: In vitro porcine allograft model: transendothelial lymphocyte migration; type: cell-based; conditions: 10 μg/ml in the medium; IL-1β-stimulated SMC
Protocol: A similar study was carried out in vitro using porcine coronary artery endothelial cells (EC; as are present in the IEL) and smooth muscle cells (SMC; as are present in the medial layer of the artery). The two cell types were cultured using a membrane transwell system, with the SMC on the bottom layer in M-199 medium (Gibco Labs.). The SMC were stimulated with 100 ng/ml of interleukin-1β (IL-1β) for 24 hours prior to the start of the assay. Porcine peripheral blood lymphocytes were separated by Ficoll-Hypaque, radiolabeled and incubated overnight (about 18 hours) on the EC.

SJL/J mice = assay: Experimental autoimmune encephalomyelitis in mice; type: in vivo; conditions: 1 mg/mouse i.p. at days 8 and 9; FIG. 6; versus control compound
Protocol: EAE was induced in female SJL/J mice (8 to 14 weeks old) by immunization on day zero with 50 μg of a compound corresponding to positions 139-151 of PLP emulsified in a 1:1 mixture of PBS and complete Freund's adjuvant (CFA). Each mouse was injected with 0.2 ml of the adjuvant emulsion subcutaneously (s.c.) at two sites in the hind flank. All mice received 10^7 killed Bordetella pertussis units in 100 μl were injected intravenously 24 to 72 hours later.
Mice were observed daily, beginning at day 8 for clinical signs of EAE, and disease was scored on a scale of 0-5 as: 0=no disease; 1=floppy tail; 2=moderate hind limb weakness; 3=paraparesis; 4=paraplegis with moderate forelimb weakness; 5=qualdriplegis or premoribund state.
The inhibitor compound, Compound ID No. 896.52, N-phenylacetyl-Leu-Asp-Phe-D-Pro-NH2 was administered intraperitoneally at 1 mg/mouse in 0.2 ml of incomplete Freund's adjuvant at days 8 and 9. A compound having a scrambled sequence [N-phenylacetyl-Asp-Leu-Phe-D-Pro-NH2 ] was similarly administered to serve as a control.
Summed or averaged scores for clinical signs were plotted vs. time. The area under the resulting curves was calculated between day 8 and day 35 to calculate percentage inhibition of EAE by an inhibitor compound. The percent inhibition was calculated as follows:
[…]

[3] = system: New Zealand white rabbits; assay: Rabbit heterotopic cardiac allograft model; type: in vivo
Text: New Zealand white female rabbits (Charles River Lab., Saint Laurent, Quebec), between 3.5 and 4 kg underwent heterotopic cardiac transplant following an experimental protocol previously described [Alonso et al., Am. J. Pathol., 87:415-442 (1977); Clausell et al., Circulation, 89:2768-2779 (1994)]. The animals were unselected to favor an HLA-mismatch, the host rabbits were Pasteurella-free and the donors, outbred animals. Both host and donor rabbits were fed Purina 5321-0.5 percent cholesterol diet (Research Diets Inc., New Brunswick, N.J.), a strategy that has proven useful in accelerating the process of allograft arteriopathy [Alonso et al., Am, J. Pathol., 87:415-442 (1977)]. The diet was commenced four days prior to the transplant and continued in the recipient of the transplant until the completion of the experimental period.
The technique of heterotopic cardiac transplantation has been previously described [Clausell et al., Circulation, 89:2768-2779 (1994)]. Briefly, a vertical incision was performed in the anterior aspect of the neck of the recipient rabbit and the left common carotid artery and the ipsilateral external jugular vein were isolated. The cardiac allograft was placed in the neck by anastomosing the aorta end-to-side to the recipient's carotid artery and the pulmonary end-to-side to the recipient's external jugular vein, following a total period of ischemia for the donor hearts of approximately 30 minutes. Postoperative care was in compliance with the Principles of Laboratory Animal Care formulated by the Canadian National Society for Medical Research.
Beginning the day of the transplant, the animals were randomized and treated with either scrambled compound (control group) at 1 mg/kg s.c. or the inhibitor compound at 1 mg/kg s.c. The doses of the compounds were empirically extrapolated to the in vivo model based on preliminary in vitro studies, of Table 1. No other immunosuppression therapy was administered. The grafts were monitored daily by palpation and maintained for 7 to 8 days, a previously described endpoint that was associated with myocardial rejection (impaired cardiac contractility) and development of the allograft arteriopathy in this model [Clausell et al., Circulation, 89:2768-2779 (1994)]. A total of fourteen animals were studied in the control (n=7) and treated (n=7) groups.
The animals were sacrificed using a lethal dose of euthanol (480 mg i.v.) (MTC Pharmaceutical, Cambridge, ON), host and donor hearts were removed, and the coronary arteries were perfused with saline through the aorta, followed by light fixation by perfusion with 2 percent paraformaldehyde (Sigma, St, Louis, Mo.). […] Different sections of the hearts were either saved in 10 percent formalin (BDH Inc., Toronto, ON) for light microscopy studies or immediately frozen in O.T.C. Compound Tissue Tek (Miles Inc., Elkart, Ind.) for specific immunohistochemistry studies.
Three different paraffin-embedded tissue sections from host and donor hearts from both control and treated rabbits were stained by the Movat pentachrome method for light microscopy. Morphometric analysis was performed using a Zeiss microscope attached to a computer-generated video analysis system (Perceptics Inc., NuVision software), as described in Clausell et al., Circulation, 89:2768-2779 (1994). The number of vessels with intimal lesions were counted in all three heart sections from each animal studied and are expressed as a percentage of the total vessel number.
In the host hearts, 999 vessels in the control group and 1054 vessels in the treated group were analyzed. In the donor hearts, 827 vessels in the control group and 617 vessels in the treated group were analyzed. To determine the severity of intimal thickening, the diameter of each traceable vessel in all three sections was measured and the coronary arteries were categorized as small (diameter <100 μm), medium (diameter >100<500 μm) and large (diameter >500 μm). […]

Q: Which “change from baseline specific lung resistance (SRL) on challenge” value (asthmatic sheep) does the source give for `CC(C)C[C@H](NC(=O)Cc1ccccc1)C(=O)N[C@@H](CC(=O)O)C(=O)N[C@@H](Cc1ccccc1)C(=O)N1CCC[C@@H]1C(N)=O` [896.52, N-phenylacetyl-Leu-Asp-Phe-D-Pro-NH2] (PhAc-LDF[dP]-NH2) here?
A: Its value is “less of a change from baseline specific lung resistance”.

Q: What about the “Percent Inhibition (post-challenge swelling)” value (BALB/c mice; expanded study, versus vehicle alone) of the same compound?
A: The value was 36%.

Q: What about the “reduction of inflammation (swelling diameter at challenge site)” value (BALB/c mice; initial study, 6 mg/kg/day s.c. pump, 24-hour, FIG. 5) of the same compound?
A: Its value is “reduced this type of CS-1/VLA-4-mediated immunoinflammation”.

Q: What about the “loss of potency in serum” value [1] of the same compound?
A: Its value is “no loss of potency”.

Q: And the “reduction of transendothelial lymphocyte migration” value [2]?
A: Its value is “about 30%”.

Q: And the “clinical signs of EAE” value (SJL/J mice)?
A: The value was “marked improvement in clinical signs”.

Q: And the “Vessel Intimal Thickening: Percent of Vessels” value ([3]; donor heart, 1 mg/kg s.c.)?
A: The value was 35%.

Q: What about the “Vessel Intimal Thickening: Severity (Percent of Vessel area)” value ([3]; donor heart, 1 mg/kg s.c.) of the same compound?
A: Its value is 16%.

Q: And the “Baseline of incidence of intimal thickening” value ([3]; rabbit own host heart)?
A: Its value is 12%.

Q: And the “Baseline of severity of intimal thickening” value ([3]; rabbit own host heart)?
A: Its value is 12%.

Reference: patent US5821231A, “CS-1 peptidomimetics, compositions and methods of using same” (Cytel Corporation, priority 1995, dated 1998)
